# Test results: article PMC3025922 (BMC Biology, 2010)
# “And” between values parts separate entries of the source, which are not always exact repeats. Equal entries are not always repeated.
# Assays:
# [1] = test system: p27 protein levels in LNCaP cells; assay: Immunoblot quantification of p27, LNCaP; format: cell-based, human
# Description: (§1) Total cell lysate from cells treated with vehicle (DMSO) or compounds were obtained by incubating cells in lysis buffer (25 mM Tris-HCl pH 7.4, 150 mM NaCl, 0.5% Triton X-100, protease inhibitors) for 15 min at 4°C. The supernatant was collected by centrifugation and the amount of protein was determined with a Bio-Rad protein assay (Bio-Rad) using BSA as standard. Equal amounts of protein were subjected to SDS-PAGE (4%-20% gels, Invitrogen) and transferred to PVDF membranes. The membranes were blocked with TBST (50 mM Tris-HCl pH 7.5, 150 mM NaCl, 0.05% Tween-20) containing 5% non-fat dry milk or bovine serum albumin (BSA) for 1 h at room temperature, followed by incubation in primary antibodies 4°C overnight. Membranes were washed and incubated with secondary antibodies conjugated to HRP (Jackson ImmunoResearch Laboratories) for 1 h at room temperature. Signals were visualized using the ECL Western Blotting Substrate (Pierce Biotechnology, IL, USA) according to the manufacturer's instructions. Membranes were stripped using Restore™ Western Blot Stripping Buffer (Pierce Biotechnology). Films were scanned and quantification of the bands was performed using Image J software http://rsbweb.nih.gov/ij/.
# PC3 cells = assay: Cell cycle analysis by flow cytometry, PC3; format: cell-based, human
# Description: (§2) Cells were exposed to SMIPs (40 μM) for 24 h and 48 h. Cells were trypsinized, washed with PBS and suspended in 600 μL PBS. Cells were fixed by adding 1.4 mL cold absolute ethanol and kept at -20°C for at least 12 h. After washing once with PBS, the cells were resuspended in 250 μL PBS containing 2.5 μg RNAse A and incubated for 45 min at room temperature. Staining was done by adding 40 μg/mL of propidium iodine followed by incubation for 15 min at room temperature. DNA-bound fluorescence was read at 564 to 606 nm using FACSort and FACSCanto flow cytometers (BD Biosciences) at the Flow Cytometry Facility of the Sanford-Burnham Medical Research Institute. Distribution of cells in the different cell cycle phase was determined with ModFit LT 3.2.1 or FlowJo 8.6 software. Aggregates were excluded from the analysis manually using pulse shape or identified by automated modelling in ModFit LT.
# [2] = test system: p27 protein levels in DU145 cells; assay: Immunoblot quantification of p27, DU145; format: cell-based, human
# Description: as §1
# [3] = test system: p21 protein levels in LNCaP cells; assay: Immunoblot quantification of p21, LNCaP; format: cell-based, human
# Description: as §1
# [4] = test system: p21 protein levels in DU145 cells; assay: Immunoblot quantification of p21, DU145; format: cell-based, human
# Description: as §1
# IMR90 cells = assay: Cell cycle analysis by flow cytometry, IMR90; format: cell-based, human
# Description: as §2
# DU145 cells = assay: Cell cycle analysis by flow cytometry, DU145; format: cell-based, human
# Description: as §2
# [5] = test system: p27 protein levels in IMR90 cells; assay: Immunoblot quantification of p27, IMR90; format: cell-based, human
# Description: as §1
# [6] = test system: p21 protein levels in HeLa cells; assay: Immunoblot quantification of p21, HeLa; format: cell-based, human
# Description: as §1
# LNCaP-S14 cells = assay: MTT cytotoxicity assay, LNCaP-S14; details: Homo sapiens, 72 h, read-out: IC50 (MTT cytotoxicity)
# Description: LNCaP-S14 (10,000 cells), PC3, DU145 or IMR90 cells (5000 cells) were seeded in 96-well plates and treated with increasing concentrations of the respective SMIPs for 72 h. Cell viability was assessed using the MTT cell proliferation assay (ATCC®, Middlesex, UK) according to the manufacturer's protocol. IC50 was calculated using the BioDataFit 1.02 software http://www.changbioscience.com/stat/ec50.html.
smiles,measurement,setting,value
CC(C)(C)c1cc2cc(NC(=O)c3cccs3)ccc2[nH]1 [SMIP001],"p27 protein level (immunoblot, DMSO = 1.0)",[1],1.5 ± 0.7
same,Cell cycle distribution G1,PC3 cells,48.6 and 57.5
same,Cell cycle distribution G2,PC3 cells,29.7 and 27.8
same,Cell cycle distribution S,PC3 cells,20.4 and 13.6
same,"p27 protein level (immunoblot, DMSO = 1.0)",[2],1.1 ± 0.2
same,"p21 protein level (immunoblot, DMSO = 1.0)",[3],1.7 ± 0.6
same,"p21 protein level (immunoblot, DMSO = 1.0)",[4],1.1 ± 0.3
same,Cell cycle distribution G1,IMR90 cells,68.4 and 77.0
same,Cell cycle distribution G2,IMR90 cells,15.3 and 14.1
same,Cell cycle distribution S,IMR90 cells,16.2 and 8.9
same,Cell cycle distribution G1,DU145 cells,65.6 and 71.1
same,Cell cycle distribution G2,DU145 cells,9.7 and 13.6
same,Cell cycle distribution S,DU145 cells,23.9 and 13.4
same,"p27 protein level (immunoblot, DMSO = 1.0)",[5],1.0 ± 0.0
same,"p21 protein level (immunoblot, DMSO = 1.0)",[6],1.1 ± 0.2
same,IC50,LNCaP-S14 cells,4.63 µM
